Reference: paper PMC9990178 (Cell Chemical Biology, 2023)

Columns and labels:
[1] = test system: pulmonary fibrosis induced by N protein of the Omicron variant; type: in vivo; conditions: mice, AAV encoding Omicron N protein
[2] = test system: Smad3 phosphorylation, α-SMA, COL1A1; type: cell-based, mouse; conditions: Alpha, Beta, Gamma, Delta, Omicron N protein; 20 μM, 36 h

O=c1c(O)c(N2CCN(Cc3ccc(Br)cc3F)CC2)oc2ccccc12 [RMY-205, 2-(4-(4-bromo-2-fluorobenzyl)piperazin-1-yl)-3-hydroxy-4H-chromen-4-one]
pro-fibrotic effects of N protein of the Omicron variant [1]: effectively suppressed | Smad3 phosphorylation induced by N protein variants [2]: abolished | α-SMA and COL1A1 expression induced by N protein variants [2]: suppression
